Source: ChEMBL document CHEMBL4507319 (2021)

What was measured:
[1] = target: CDK3/cyclin E (Homo sapiens) (UniProt P24864+O96020+Q00526); assay: CDK3/cyclinE(h) Eurofins kinase panel; type: protein-complex assay; details: Compound concentration 1.0 uM
[2] = target: CDK6/cyclin D3 (Homo sapiens) (UniProt P30281+Q00534); assay: CDK6/cyclinD3(h) Eurofins kinase panel; type: protein-complex assay; details: Compound concentration 1.0 uM
[3] = target: Homeodomain-interacting protein kinase 1 (Homo sapiens) (UniProt Q86Z02); assay: HIPK1(h) Eurofins kinase panel; details: Compound concentration 1.0 uM
[4] = target: Interleukin-1 receptor-associated kinase 1 (Homo sapiens) (UniProt P51617); assay: IRAK1(h) Eurofins kinase panel; details: Compound concentration 1.0 uM
[5] = target: Serine/threonine-protein kinase MRCK alpha (Homo sapiens) (UniProt Q5VT25); assay: MRCKalpha(h) Eurofins kinase panel; details: Compound concentration 1.0 uM
[6] = target: T1, Serine/threonine-protein kinase Nek9 (Homo sapiens) (UniProt Q8TD19); assay: NEK9(h) Eurofins kinase panel; details: Compound concentration 1.0 uM
T1 sequence (whole entry): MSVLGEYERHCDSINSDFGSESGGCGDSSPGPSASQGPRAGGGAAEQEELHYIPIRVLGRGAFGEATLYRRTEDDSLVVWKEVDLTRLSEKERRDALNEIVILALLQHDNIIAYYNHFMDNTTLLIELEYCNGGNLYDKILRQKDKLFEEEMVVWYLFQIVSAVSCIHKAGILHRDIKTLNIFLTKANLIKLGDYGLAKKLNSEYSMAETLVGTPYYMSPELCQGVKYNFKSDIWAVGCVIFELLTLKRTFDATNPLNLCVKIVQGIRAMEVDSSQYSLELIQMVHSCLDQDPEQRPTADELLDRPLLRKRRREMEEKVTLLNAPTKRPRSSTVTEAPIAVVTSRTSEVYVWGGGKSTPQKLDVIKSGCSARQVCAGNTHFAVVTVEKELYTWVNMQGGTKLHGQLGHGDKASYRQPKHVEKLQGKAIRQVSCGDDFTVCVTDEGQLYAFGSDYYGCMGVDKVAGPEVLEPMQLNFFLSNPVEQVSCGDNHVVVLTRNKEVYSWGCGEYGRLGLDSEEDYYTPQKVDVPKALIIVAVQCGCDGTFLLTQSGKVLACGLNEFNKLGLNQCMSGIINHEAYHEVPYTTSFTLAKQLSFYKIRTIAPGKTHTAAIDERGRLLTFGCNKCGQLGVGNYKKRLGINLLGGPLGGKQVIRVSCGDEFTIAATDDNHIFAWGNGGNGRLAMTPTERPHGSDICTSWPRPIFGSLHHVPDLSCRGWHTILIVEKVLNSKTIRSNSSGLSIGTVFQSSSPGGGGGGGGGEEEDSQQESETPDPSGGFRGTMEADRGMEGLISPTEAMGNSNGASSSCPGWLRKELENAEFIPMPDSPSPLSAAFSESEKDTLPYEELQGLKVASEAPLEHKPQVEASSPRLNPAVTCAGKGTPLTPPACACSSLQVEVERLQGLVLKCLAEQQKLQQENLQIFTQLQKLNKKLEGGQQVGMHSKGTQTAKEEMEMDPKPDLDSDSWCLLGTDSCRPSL

[7] = target: RAC-alpha serine/threonine-protein kinase (Homo sapiens) (UniProt P31749); assay: PKBalpha (h) Eurofins kinase panel; details: Compound concentration 1.0 uM
[8] = target: T2, Protein kinase C epsilon type (Homo sapiens) (UniProt Q02156); assay: PKCepsilon (h) Eurofins kinase panel; details: Compound concentration 1.0 uM
T2 sequence (whole entry): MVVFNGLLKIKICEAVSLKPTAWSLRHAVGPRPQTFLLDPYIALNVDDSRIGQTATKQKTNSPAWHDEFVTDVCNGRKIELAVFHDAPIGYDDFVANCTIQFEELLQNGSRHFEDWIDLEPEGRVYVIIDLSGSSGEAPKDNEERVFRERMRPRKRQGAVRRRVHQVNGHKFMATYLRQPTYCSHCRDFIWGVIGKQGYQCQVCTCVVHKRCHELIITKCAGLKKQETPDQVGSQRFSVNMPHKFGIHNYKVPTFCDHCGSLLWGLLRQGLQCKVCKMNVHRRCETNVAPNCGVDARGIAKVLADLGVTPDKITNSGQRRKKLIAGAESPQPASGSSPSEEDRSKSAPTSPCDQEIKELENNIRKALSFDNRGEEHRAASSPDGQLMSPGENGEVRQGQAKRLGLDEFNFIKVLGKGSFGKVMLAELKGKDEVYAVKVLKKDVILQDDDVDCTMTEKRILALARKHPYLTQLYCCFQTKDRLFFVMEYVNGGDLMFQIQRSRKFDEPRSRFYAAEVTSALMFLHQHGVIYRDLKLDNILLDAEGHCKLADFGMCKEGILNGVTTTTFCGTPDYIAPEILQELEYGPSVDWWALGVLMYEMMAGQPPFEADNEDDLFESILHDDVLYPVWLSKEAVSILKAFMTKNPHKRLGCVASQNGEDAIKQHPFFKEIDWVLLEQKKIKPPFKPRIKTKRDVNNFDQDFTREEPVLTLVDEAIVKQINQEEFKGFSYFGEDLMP

[9] = target: SRSF protein kinase 1 (Homo sapiens) (UniProt Q96SB4); assay: SRPK1(h) Eurofins kinase panel; details: Compound concentration 1.0 uM
[10] = target: T3, Tyrosine-protein kinase TXK (Homo sapiens) (UniProt P42681); assay: Txk(h) Eurofins kinase panel; details: Compound concentration 1.0 uM
T3 sequence (whole entry): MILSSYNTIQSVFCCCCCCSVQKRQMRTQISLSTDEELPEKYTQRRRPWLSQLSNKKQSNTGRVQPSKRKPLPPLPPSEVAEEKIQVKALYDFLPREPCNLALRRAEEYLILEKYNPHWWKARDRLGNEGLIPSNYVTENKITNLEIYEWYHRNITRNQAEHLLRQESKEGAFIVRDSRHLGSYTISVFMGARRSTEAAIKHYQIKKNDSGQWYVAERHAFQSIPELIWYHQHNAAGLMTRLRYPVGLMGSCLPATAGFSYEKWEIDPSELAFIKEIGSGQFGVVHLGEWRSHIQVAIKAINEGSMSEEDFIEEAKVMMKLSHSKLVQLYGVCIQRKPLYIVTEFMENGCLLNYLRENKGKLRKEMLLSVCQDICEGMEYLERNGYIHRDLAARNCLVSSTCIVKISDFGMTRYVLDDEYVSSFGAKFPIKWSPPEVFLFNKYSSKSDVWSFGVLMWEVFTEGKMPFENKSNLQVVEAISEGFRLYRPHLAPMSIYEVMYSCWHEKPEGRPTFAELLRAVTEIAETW

[11] = target: Ribosomal protein S6 kinase alpha-3 (Homo sapiens, UniProt P51812)
[12] = GPCRScan assay: inhibition of GABA/PBR; design: species or system Rattus norvegicus; radioligand conc. used [nm] 0.3 – 2.0, parental cells brain tissue
[13] = target: GABA-A receptor; anion channel (Rattus norvegicus) (UniProt O09028+P15431+P18506+P18508+P19969+P20236+P23574+P23576+P28471+P28473+P30191+P62813+P63079+P63138+Q91ZM7+Q9ES14); details: Compound concentration 10.0 uM

RAC-alpha serine/threonine-protein kinase (Homo sapiens), sequence (P31749 whole entry): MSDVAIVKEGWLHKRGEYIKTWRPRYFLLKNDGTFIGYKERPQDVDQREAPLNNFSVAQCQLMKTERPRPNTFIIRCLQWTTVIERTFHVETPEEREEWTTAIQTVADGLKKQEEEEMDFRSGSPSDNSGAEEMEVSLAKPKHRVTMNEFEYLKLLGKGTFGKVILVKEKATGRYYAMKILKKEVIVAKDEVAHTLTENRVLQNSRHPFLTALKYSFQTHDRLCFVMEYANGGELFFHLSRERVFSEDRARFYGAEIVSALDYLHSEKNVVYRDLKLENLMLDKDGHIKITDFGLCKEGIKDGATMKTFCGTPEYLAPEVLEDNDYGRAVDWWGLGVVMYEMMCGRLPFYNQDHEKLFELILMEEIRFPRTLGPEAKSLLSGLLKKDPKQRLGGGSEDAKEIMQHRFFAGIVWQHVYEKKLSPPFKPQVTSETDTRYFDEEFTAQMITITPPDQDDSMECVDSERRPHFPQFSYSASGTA
CDK3/cyclin E (Homo sapiens), sequence (O96020 whole entry, looked up): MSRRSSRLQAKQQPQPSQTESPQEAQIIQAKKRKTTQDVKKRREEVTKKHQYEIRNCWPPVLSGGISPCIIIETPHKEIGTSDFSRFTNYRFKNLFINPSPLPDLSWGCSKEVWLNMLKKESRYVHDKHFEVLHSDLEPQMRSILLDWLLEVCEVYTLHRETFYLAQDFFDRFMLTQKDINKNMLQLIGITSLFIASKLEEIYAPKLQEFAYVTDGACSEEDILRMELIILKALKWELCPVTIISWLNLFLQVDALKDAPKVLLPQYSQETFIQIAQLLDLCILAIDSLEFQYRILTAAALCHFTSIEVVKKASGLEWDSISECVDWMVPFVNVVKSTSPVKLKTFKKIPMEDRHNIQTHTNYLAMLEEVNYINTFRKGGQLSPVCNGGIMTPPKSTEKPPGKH
CDK3/cyclin E (Homo sapiens), sequence (P24864 whole entry, looked up): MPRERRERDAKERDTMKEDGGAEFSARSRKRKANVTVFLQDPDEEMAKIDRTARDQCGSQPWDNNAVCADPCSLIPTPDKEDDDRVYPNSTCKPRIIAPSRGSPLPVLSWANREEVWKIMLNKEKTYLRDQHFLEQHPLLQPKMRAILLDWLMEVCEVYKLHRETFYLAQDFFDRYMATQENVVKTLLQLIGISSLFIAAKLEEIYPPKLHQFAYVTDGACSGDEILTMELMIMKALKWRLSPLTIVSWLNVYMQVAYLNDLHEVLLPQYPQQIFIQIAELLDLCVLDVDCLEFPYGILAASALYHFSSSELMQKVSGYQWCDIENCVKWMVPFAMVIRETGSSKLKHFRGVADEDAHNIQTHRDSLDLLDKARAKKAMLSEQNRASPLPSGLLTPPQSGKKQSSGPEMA
CDK3/cyclin E (Homo sapiens), sequence (Q00526 whole entry, looked up): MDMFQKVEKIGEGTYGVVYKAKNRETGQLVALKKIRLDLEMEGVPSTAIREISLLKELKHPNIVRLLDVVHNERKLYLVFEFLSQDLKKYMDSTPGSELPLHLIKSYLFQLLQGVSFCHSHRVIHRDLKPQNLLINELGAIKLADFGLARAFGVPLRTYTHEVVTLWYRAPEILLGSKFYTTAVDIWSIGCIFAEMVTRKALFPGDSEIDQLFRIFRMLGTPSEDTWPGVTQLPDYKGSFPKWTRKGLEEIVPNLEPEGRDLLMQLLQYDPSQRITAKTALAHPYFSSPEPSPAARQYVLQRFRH
Homeodomain-interacting protein kinase 1 (Homo sapiens), sequence (Q86Z02 whole entry, looked up): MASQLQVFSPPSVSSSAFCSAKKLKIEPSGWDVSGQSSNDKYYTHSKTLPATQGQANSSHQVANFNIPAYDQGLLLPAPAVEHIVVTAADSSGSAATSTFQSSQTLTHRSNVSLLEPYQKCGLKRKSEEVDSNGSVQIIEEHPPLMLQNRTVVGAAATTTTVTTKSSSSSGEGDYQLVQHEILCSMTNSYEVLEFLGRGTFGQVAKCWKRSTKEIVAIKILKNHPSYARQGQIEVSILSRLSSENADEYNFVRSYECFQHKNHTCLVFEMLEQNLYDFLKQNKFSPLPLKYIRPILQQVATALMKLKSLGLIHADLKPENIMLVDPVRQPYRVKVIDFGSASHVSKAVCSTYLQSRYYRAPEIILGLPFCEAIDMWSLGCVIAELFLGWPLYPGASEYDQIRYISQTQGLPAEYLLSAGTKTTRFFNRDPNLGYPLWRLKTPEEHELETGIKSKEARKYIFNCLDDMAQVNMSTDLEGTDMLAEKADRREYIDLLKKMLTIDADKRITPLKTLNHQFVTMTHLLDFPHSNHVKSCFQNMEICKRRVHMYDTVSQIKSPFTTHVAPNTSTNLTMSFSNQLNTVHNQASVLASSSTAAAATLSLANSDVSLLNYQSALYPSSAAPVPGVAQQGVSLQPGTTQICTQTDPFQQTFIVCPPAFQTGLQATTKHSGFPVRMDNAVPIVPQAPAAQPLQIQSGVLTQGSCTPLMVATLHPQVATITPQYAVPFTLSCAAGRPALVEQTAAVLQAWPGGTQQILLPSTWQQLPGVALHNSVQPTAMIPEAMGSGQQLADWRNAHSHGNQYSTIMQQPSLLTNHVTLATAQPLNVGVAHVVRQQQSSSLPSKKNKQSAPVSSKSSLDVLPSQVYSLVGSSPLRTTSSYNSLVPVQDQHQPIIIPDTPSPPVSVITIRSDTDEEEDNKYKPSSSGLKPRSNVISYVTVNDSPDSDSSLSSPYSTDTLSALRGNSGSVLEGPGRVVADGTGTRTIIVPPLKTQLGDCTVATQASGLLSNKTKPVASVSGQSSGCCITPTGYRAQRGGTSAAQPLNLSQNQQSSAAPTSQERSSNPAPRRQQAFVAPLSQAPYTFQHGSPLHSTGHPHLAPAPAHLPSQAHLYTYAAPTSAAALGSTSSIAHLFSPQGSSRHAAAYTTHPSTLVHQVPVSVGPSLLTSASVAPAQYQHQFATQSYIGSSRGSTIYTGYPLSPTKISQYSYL
Interleukin-1 receptor-associated kinase 1 (Homo sapiens), sequence (P51617 whole entry, looked up): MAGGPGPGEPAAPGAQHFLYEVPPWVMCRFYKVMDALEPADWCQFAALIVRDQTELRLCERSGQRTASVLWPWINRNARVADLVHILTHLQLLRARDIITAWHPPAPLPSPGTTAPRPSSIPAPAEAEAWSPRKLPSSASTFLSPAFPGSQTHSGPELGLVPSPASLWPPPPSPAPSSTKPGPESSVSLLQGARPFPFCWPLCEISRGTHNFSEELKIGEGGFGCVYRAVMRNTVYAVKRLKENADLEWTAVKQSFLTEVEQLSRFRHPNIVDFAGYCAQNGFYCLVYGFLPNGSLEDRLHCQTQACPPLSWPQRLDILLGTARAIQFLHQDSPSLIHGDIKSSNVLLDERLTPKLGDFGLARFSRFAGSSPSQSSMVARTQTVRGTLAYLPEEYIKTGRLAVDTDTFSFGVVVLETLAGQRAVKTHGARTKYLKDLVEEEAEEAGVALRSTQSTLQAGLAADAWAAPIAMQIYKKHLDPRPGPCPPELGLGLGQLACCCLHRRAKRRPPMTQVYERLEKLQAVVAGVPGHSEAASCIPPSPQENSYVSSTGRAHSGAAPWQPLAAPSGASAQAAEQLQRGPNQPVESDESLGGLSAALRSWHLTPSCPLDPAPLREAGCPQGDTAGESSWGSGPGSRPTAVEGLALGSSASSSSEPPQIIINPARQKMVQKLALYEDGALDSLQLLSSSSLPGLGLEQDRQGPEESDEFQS
Ribosomal protein S6 kinase alpha-3, sequence (P51812 whole entry): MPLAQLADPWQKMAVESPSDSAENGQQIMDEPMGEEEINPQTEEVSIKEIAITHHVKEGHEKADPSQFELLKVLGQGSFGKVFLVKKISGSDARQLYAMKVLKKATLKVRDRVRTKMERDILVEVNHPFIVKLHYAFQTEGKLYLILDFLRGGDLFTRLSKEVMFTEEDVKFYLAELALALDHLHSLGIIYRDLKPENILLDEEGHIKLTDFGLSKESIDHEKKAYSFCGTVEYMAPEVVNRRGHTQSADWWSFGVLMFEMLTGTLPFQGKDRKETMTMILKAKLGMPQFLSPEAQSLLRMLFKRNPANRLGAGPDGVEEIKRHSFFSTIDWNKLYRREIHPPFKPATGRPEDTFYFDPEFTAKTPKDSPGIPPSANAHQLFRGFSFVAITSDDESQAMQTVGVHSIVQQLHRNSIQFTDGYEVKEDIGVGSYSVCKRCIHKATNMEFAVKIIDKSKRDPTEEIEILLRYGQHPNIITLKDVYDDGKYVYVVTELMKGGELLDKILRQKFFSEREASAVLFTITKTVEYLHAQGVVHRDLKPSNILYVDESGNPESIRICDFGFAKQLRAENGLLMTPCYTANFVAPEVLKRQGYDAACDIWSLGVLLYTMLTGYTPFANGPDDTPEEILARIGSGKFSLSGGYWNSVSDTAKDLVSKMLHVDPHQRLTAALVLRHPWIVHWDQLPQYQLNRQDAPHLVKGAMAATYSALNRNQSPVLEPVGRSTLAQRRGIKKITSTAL
SRSF protein kinase 1 (Homo sapiens), sequence (Q96SB4 whole entry): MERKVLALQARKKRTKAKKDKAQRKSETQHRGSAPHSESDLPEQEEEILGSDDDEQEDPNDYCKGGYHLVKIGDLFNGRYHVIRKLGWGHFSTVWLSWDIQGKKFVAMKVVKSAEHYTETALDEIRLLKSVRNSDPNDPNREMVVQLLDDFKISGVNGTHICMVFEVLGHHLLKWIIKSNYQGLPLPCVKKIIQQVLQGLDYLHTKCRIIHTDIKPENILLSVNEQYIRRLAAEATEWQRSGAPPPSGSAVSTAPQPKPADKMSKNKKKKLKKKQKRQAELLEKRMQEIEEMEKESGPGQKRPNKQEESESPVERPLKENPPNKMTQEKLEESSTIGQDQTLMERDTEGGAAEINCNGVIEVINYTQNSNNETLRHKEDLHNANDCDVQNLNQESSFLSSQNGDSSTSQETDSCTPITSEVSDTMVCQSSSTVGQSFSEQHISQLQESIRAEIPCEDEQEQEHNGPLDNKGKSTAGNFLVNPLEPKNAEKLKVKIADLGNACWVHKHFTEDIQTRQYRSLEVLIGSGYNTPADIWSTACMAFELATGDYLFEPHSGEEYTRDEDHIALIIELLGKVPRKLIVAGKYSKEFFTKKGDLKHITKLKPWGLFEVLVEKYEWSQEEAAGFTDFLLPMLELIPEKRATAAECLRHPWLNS

Structure (SMILES) | % residual kinase activity [1] [%] | % residual kinase activity [2] [%] | % residual kinase activity [3] [%] | % residual kinase activity [4] [%] | % residual kinase activity [5] [%] | % residual kinase activity [6] [%] | % residual kinase activity [7] [%] | % residual kinase activity [8] [%] | % residual kinase activity [9] [%] | % residual kinase activity [10] [%] | IC50 [11] [nM] | Ki [12] [nM] | pKi [12] | inhibition [13] [%]
CCc1ccccc1C(=O)Nc1n[nH]c2c(C)c(F)c(C3C(C#N)=C(C)N(C)C(C)=C3C#N)cc12 [BAY-3827] | 100 | 110 | 100 | 99 | 98 | 47 | 91 | 62 | 84 | 111 | 52 | – | – | –
CC1=C(C#N)C(c2ccc3c(c2)c(NC(=O)c2ccccc2C)nn3C)C(C#N)=C(C)N1 [BAY-974] | – | – | – | – | – | – | – | – | – | – | – | 21 | 7.69 | -1.23
